Results published in PubChem BioAssay AID1205 (EPA DSSTox, 2008).
The source made the active and inactive calls.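 Rule for the calls: active = tumour findings in long-term animal cancer tests in more than one sex, species or organ; inactive = no tumour finding and more than one negative test.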

experiment: DSSTox (CPDBAS) Carcinogenic Potency Database Summary MultiCellCall Results; settings: animal carcinogenicity bioassays, multi-cell call summary
Summary of the method: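 ActivityScore sums 50 for multispecies, 30 for multisex and 20 for multisite positivity. Based on the most positive experiment per sex-species across standardised chronic rodent and other animal cancer tests.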

Row | Compound | outcome
1 | Nc1ccc2c(c1)C(=O)c1ccccc1C2=O | active; multisite active; multisex active; multispecies active
2 | S=c1[nH]c2ccccc2s1 | active; multisite active; multisex active
3 | Clc1ccc(C(c2ccc(Cl)cc2)C(Cl)(Cl)Cl)cc1 | active; multisite active; multisex active; multispecies active
4 | Cc1ccc(OP(=O)(Oc2ccc(C)cc2)Oc2ccc(C)cc2)cc1 | inactive; multisex inactive; multispecies inactive
5 | COC(C)(C)C | active; multisite active; multisex active; multispecies active
6 | O=CNNc1nc(-c2ccc([N+](=O)[O-])o2)cs1 | active; multisite active; multisex active; multispecies active
7 | NC(=O)N(CCCO)N=O | active; multisex active
8 | OCN(CO)c1nc(N(CO)CO)nc(N(CO)CO)n1 | active; multisite active
9 | O=C(O)/C=C/c1ccc(O)c(O)c1 | active; multisite active; multisex active; multispecies active
10 | O=P(OC(CCl)CCl)(OC(CCl)CCl)OC(CCl)CCl | active; multisite active; multisex active
11 | Cc1cc(N=Nc2ccccc2C)ccc1N | active; multisex active
12 | C#C[C@]1(OC(C)=O)CC[C@H]2[C@@H]3CCC4=CC(=O)CC[C@@H]4[C@H]3CC[C@@]21C | active; multisite active; multispecies active
13 | CCN(CC)C(=S)SSC(=S)N(CC)CC | inactive; multisex inactive; multispecies inactive
14 | Cc1ccc(S(=O)(=O)Oc2ccc(N=Nc3ccc(-c4ccc(N=Nc5c(O)ccc6cc(S(=O)(=O)O)cc(S(=O)(=O)O)c56)c(C)c4)cc3C)cc2)cc1 | active; multisite active; multisex active
15 | CN=C(NC#N)NCCSCc1nc[nH]c1C | inactive; multisex inactive; multispecies inactive
16 | CC=O | active; multisite active; multisex active; multispecies active
17 | C1CCC(C(CC2CCCCN2)C2CCCCC2)CC1 (stereo not drawn) | inactive; multisex inactive
18 | O=S(=O)(O)NC1CCCCC1 | active; multisite active; multisex active
19 | CN(N=O)C(=O)c1ccccc1 | active; multisite active; multisex active

Row | Compound | outcome
20 | O=S(=O)([O-])[O-].[O]=[V+2] | inactive; multisex inactive; multispecies inactive
21 | c1ccc2c(c1)Nc1ccccc1S2 | inactive; multisex inactive
22 | CN(C)/N=N/c1nc[nH]c1C(N)=O | active; multisite active; multisex active; multispecies active
23 | CN(C)N | active; multisite active; multisex active; multispecies active
24 | CCOC(=O)N(C)N=O | active; multisite active
25 | CCCCNC(=O)N(CCCC)N=O | active; multisite active
26 | CCC(=O)C(CC(C)N(C)C)(c1ccccc1)c1ccccc1 (stereo not drawn) | inactive; multisex inactive; multispecies inactive
27 | CCOP(=S)(OCC)Oc1ccc2c(C)c(Cl)c(=O)oc2c1 | inactive; multisex inactive; multispecies inactive
28 | O=C1CCc2ccccc2O1 | active; multisite active; multisex active; multispecies active
29 | NNc1nc(-c2ccc(N)cc2)cs1 | active; multisite active; multispecies active
30 | O=C1CCCO1 | inactive; multisex inactive; multispecies inactive
31 | C[C@@H]1O[C@@]2(CS1)CN1CCC2CC1 | inactive; multisex inactive
32 | c1ccc(C2CO2)cc1 (stereo not drawn) | active; multisex active; multispecies active
33 | CCN(CC)C(=S)[S-].CCN(CC)C(=S)[S-].[Zn+2] | inactive; multisex inactive
34 | CC(=O)O[C@]1(C(C)=O)CC[C@H]2[C@@H]3C=C(Cl)C4=CC(=O)[C@@H]5C[C@@H]5[C@]4(C)[C@H]3CC[C@@]21C | active; multisite active; multisex active
35 | FC(Cl)(Cl)Cl | inactive; multisex inactive; multispecies inactive
36 | O=S1(=O)CCCO1 | active; multisite active; multisex active
37 | COc1cc(S(C)=O)ccc1-c1nc2ccncc2[nH]1 (stereo not drawn) | active; multisex active
38 | CC1=CC(=C(c2ccc(N)cc2)c2ccc(N)cc2)C=CC1=N | inactive; multisex inactive; multispecies inactive
